Data: publication PMC4117758 (2014)

Key:
Test in all cases: Job plot, absorption and fluorescence
Conditions in all cases: 150 mM KCl; 10 mM Tris-HCl pH 7.4, 1 mM Na2EDTA, 400 ml/l PEG 200; 5 μM total
[1] = system: Hum63 (DNA, G4) GGGTTAGGGTTAGGGTTAGGGTTAGGGTTAGGGTTAGGGTTAGGGTTAGGGTTAGGGTTAGGG
[2] = system: Hum51 (DNA, G4) GGGTTAGGGTTAGGGTTAGGGTTAGGGTTAGGGTTAGGGTTAGGGTTAGGG
[3] = system: Hum57-M2 (DNA, G4) GGGTTAGGGTTAGGGTTAGGGTTGAGTGTAGGGTTAGGGTTAGGGTTAGGGTGTGAG
[4] = system: Hum57 (DNA, G4) GGGTTAGGGTTAGGGTTAGGGTTAGGGTTAGGGTTAGGGTTAGGGTTAGGGTTAGGG
[5] = system: Hum57-M3 (DNA, G4) GGGTTAGGGTTAGGGTTAGGGTTGAGTGTGAGTGTAGGGTTAGGGTTAGGGTTAGGG
[6] = system: Hum51-M1 (DNA, G4) GGGTTAGGGTTAGGGTTAGGGTTAGGGTTAGGGTTAGGGTTAGGGTGTGAG
[7] = system: Hum57-M1 (DNA, G4) GGGTTAGGGTTAGGGTTAGGGTTAGGGTTAGGGTTAGGGTTAGGGTGTGAGTGTGAG
[8] = system: Hum51-M2 (DNA, G4) GGGTTAGGGTTAGGGTTAGGGTTGAGTGTAGGGTTAGGGTTAGGGTTAGGG
[9] = system: Hum21 (DNA, G4) GGGTTAGGGTTAGGGTTAGGG
[10] = system: Hum45 (DNA, G4) GGGTTAGGGTTAGGGTTAGGGTTAGGGTTAGGGTTAGGGTTAGGG
[11] = system: Hum69 (DNA, G4) GGGTTAGGGTTAGGGTTAGGGTTAGGGTTAGGGTTAGGGTTAGGGTTAGGGTTAGGGTTAGGGTTAGGG

binding [1]: yes | binding [2]: yes | binding [3]: yes | binding [4]: yes | binding [5]: yes | binding [6]: yes | binding [7]: yes | binding [8]: yes | binding [9]: yes | binding [10]: yes | binding [11]: yes
Structure (SMILES): C[N+]1(CCOc2ccc(-c3c4nc(c(-c5ccc(OCC[N+]6(C)CCCCC6)cc5)c5ccc([nH]5)c(-c5ccc(OCC[N+]6(C)CCCCC6)cc5)c5nc(c(-c6ccc(OCC[N+]7(C)CCCCC7)cc6)c6ccc3[nH]6)C=C5)C=C4)cc2)CCCCC1
